Patent US20050250801A1, “Method of treating cancer with azaspirane compositions” (priority 2003, published 2005)
Like-named read-outs stand apart in the source and are kept apart here.

What was measured:
Type in all cases: cell-based
[1] = tested on: PC-3; test: NCI in vitro SRB assay, Prostate Cancer; conditions: for CC50 / GI50: Homo sapiens
Method: (§1) An in vitro assay which tested the ability of N,N,-diethyl-8,8-dipropyl-2-azaspiro[4,5]decane-2-propanamine dimaleate (Compound 1) to inhibit the growth of known cancer cell lines was performed by the National Cancer Institute in accordance with standard procedures. See: Lin, Z. X., Hoult, J. R., and Raman, A. Sulphorhodamine B assay for measuring proliferation of a pigmented melanocyte cell line and its application to the evaluation of crude drugs used in the treatment of vitiligo. J Ethnopharmacol. 66: 141-150, 1999. Briefly, selected tumor cell lines were cultured in media containing five different concentrations of Compound 1. After 48 hours of continuous exposure, a sulforhodamine B (SRB) assay was used to estimate cell viability or growth via optical measurements.
(§2) From the measurements, the following values were determined: 1) the concentration of Compound 1 at which a tumor cell growth inhibition of 50% (relative to control) occurs (GI50), 2) the concentration of Compound 1 at which no growth occurs (total growth inhibition, TGI), and 3) the concentration of Compound 1 at which the […] (LC 50). […] FIG. 6 illustrates, graphically, tumor cell growth as a function of Compound 1 concentration of the scanned tumor cell lines.

[2] = tested on: DU-145; test: NCI in vitro SRB assay, Prostate Cancer; conditions: for GI50: Homo sapiens
Method: as §1, §2

[3] = tested on: IGROV1; test: NCI in vitro SRB assay, Ovarian Cancer
Method: as §1, §2

[4] = tested on: SK-OV-3; test: NCI in vitro SRB assay, Ovarian Cancer
Method: as §1, §2

[5] = tested on: OVCAR-3; test: NCI in vitro SRB assay, Ovarian Cancer
Method: as §1, §2

[6] = tested on: OVCAR-8; test: NCI in vitro SRB assay, Ovarian Cancer
Method: as §1, §2

[7] = tested on: OVCAR-4; test: NCI in vitro SRB assay, Ovarian Cancer
Method: as §1, §2

[8] = tested on: OVCAR-5; test: NCI in vitro SRB assay, Ovarian Cancer
Method: as §1, §2

[9] = tested on: T-47D; test: NCI in vitro SRB assay, Breast Cancer
Method: as §1, §2

[10] = tested on: MDA-MB-435; test: NCI in vitro SRB assay, Breast Cancer; conditions: for CC50 / GI50: Homo sapiens
Method: as §1, §2

[11] = tested on: MDA-MB-231/ATCC; test: NCI in vitro SRB assay, Breast Cancer; conditions: for GI50 / CC50: Homo sapiens
Method: as §1, §2

[12] = tested on: HS 578T; test: NCI in vitro SRB assay, Breast Cancer; conditions: for CC50 / GI50: Homo sapiens; for CC50: Hs-578T
Method: as §1, §2

[13] = MDA-MB-435, Log10 conc -4.0 Moles/L
[14] = MDA-MB-435, Log10 conc -5.0 Moles/L
[15] = MDA-MB-435, Log10 conc -6.0 Moles/L
[16] = MDA-MB-435, Log10 conc -7.0 Moles/L
[17] = MDA-MB-435, Log10 conc -8.0 Moles/L
[18] = MDA-MB-231/ATCC, Log10 conc -4.0 Moles/L
[19] = MDA-MB-231/ATCC, Log10 conc -5.0 Moles/L
[20] = MDA-MB-231/ATCC, Log10 conc -6.0 Moles/L
[21] = MDA-MB-231/ATCC, Log10 conc -7.0 Moles/L
[22] = MDA-MB-231/ATCC, Log10 conc -8.0 Moles/L
[23] = HS 578T, Log10 conc -4.0 Moles/L
[24] = HS 578T, Log10 conc -5.0 Moles/L
[25] = HS 578T, Log10 conc -6.0 Moles/L
[26] = HS 578T, Log10 conc -7.0 Moles/L
[27] = HS 578T, Log10 conc -8.0 Moles/L

Q: Which results are given for `CCCC1(CCC)CCC2(CCN(CCCN(CC)CC)C2)CC1.O=C(O)/C=C\C(=O)O.O=C(O)/C=C\C(=O)O` [Compound 1, N,N,-diethyl-8,8-dipropyl-2-azaspiro[4,5]decane-2-propanamine dimaleate]?
A: CC50 ([1]; PC-3, read-out: LC50): 6.68 µM; CC50 ([1]; PC-3, read-out: Log10 LC50 (converted)): 6.61 µM; GI50 ([1]; PC-3, read-out: GI50): 1.71 µM; GI50 ([1]; PC-3, read-out: Log10 GI50 (converted)): 1.7 µM; Log10 TGI ([1]; PC-3): −5.47; TGI ([1]; PC-3): 3.38 µM; Mean Optical Densities ([1]; PC-3, Log10 conc -4.0 Moles/L): 0.037; Percent Growth ([1]; PC-3, Log10 conc -4.0 Moles/L): −90%; Mean Optical Densities ([1]; PC-3, Log10 conc -5.0 Moles/L): 0.073; Percent Growth ([1]; PC-3, Log10 conc -5.0 Moles/L): −80%; Mean Optical Densities ([1]; PC-3, Log10 conc -6.0 Moles/L): 1.953; Percent Growth ([1]; PC-3, Log10 conc -6.0 Moles/L): 89%; Mean Optical Densities ([1]; PC-3, Log10 conc -7.0 Moles/L): 2.067; Percent Growth ([1]; PC-3, Log10 conc -7.0 Moles/L): 96%; Mean Optical Densities ([1]; PC-3, Log10 conc -8.0 Moles/L): 2.116; Percent Growth ([1]; PC-3, Log10 conc -8.0 Moles/L): 99%; Log10 TGI [2]: −5.51; TGI [2]: 3.09 µM; GI50 ([2]; read-out: GI50): 1.7 µM; GI50 ([2]; read-out: Log10 GI50 (converted)): 1.7 µM; Mean Optical Densities ([2]; Log10 conc -4.0 Moles/L): −0.032; Percent Growth ([2]; Log10 conc -4.0 Moles/L): −100%; Mean Optical Densities ([2]; Log10 conc -5.0 Moles/L): 0.005; Percent Growth ([2]; Log10 conc -5.0 Moles/L): −98%; Mean Optical Densities ([2]; Log10 conc -6.0 Moles/L): 0.733; Percent Growth ([2]; Log10 conc -6.0 Moles/L): 94%; Mean Optical Densities ([2]; Log10 conc -7.0 Moles/L): 0.766; Percent Growth ([2]; Log10 conc -7.0 Moles/L): 101%; Mean Optical Densities ([2]; Log10 conc -8.0 Moles/L): 0.728; Percent Growth ([2]; Log10 conc -8.0 Moles/L): 93%; CC50 ([3]; Homo sapiens, IGROV-1, read-out: Log10 LC50 (converted)): > 100 µM; GI50 ([3]; Homo sapiens, IGROV-1, IGROV1, read-out: Log10 GI50 (converted)): 2.45 µM; Log10 TGI ([3]; IGROV1): >−4.00; CC50 ([4]; Homo sapiens, SK-OV-3, read-out: Log10 LC50 (converted)): 58.9 µM; GI50 ([4]; Homo sapiens, SK-OV-3, read-out: Log10 GI50 (converted)): 4.57 µM; Log10 TGI ([4]; SK-OV-3): −5.10; Log10 TGI [5]: −5.21; GI50 ([5]; Homo sapiens, read-out: Log10 GI50 (converted)): 2.34 µM; CC50 ([6]; Homo sapiens, OVCAR-8, read-out: Log10 LC50 (converted)): > 100 µM; GI50 ([6]; Homo sapiens, OVCAR-8, read-out: Log10 GI50 (converted)): 2.69 µM; Log10 TGI ([6]; OVCAR-8): −4.92; CC50 ([7]; Homo sapiens, OVCAR-4, read-out: Log10 LC50 (converted)): 6.61 µM; GI50 ([7]; Homo sapiens, OVCAR-4, read-out: Log10 GI50 (converted)): 1.62 µM; Log10 TGI ([7]; OVCAR-4): −5.49; CC50 ([8]; Homo sapiens, OVCAR-5, read-out: Log10 LC50 (converted)): 7.08 µM; GI50 ([8]; Homo sapiens, OVCAR-5, read-out: Log10 GI50 (converted)): 2.4 µM; Log10 TGI ([8]; OVCAR-5): −5.39; TGI [9]: 4.11 µM; GI50 ([9]; Homo sapiens, T47D): 1.71 µM; Mean Optical Densities ([9]; Log10 conc -4.0 Moles/L): 0.207; Percent Growth ([9]; Log10 conc -4.0 Moles/L): −38%; Mean Optical Densities ([9]; Log10 conc -5.0 Moles/L): 0.164; Percent Growth ([9]; Log10 conc -5.0 Moles/L): −51%; Mean Optical Densities ([9]; Log10 conc -6.0 Moles/L): 1.024; Percent Growth ([9]; Log10 conc -6.0 Moles/L): 81%; Mean Optical Densities ([9]; Log10 conc -7.0 Moles/L): 1.176; Percent Growth ([9]; Log10 conc -7.0 Moles/L): 98%; Mean Optical Densities ([9]; Log10 conc -8.0 Moles/L): 0.837; Percent Growth ([9]; Log10 conc -8.0 Moles/L): 59%; CC50 ([10]; MDA-MB-435, read-out: LC50): 6.19 µM; CC50 ([10]; MDA-MB-435, read-out: Log10 LC50 (converted)): 5.89 µM; GI50 ([10]; MDA-MB-435, read-out: GI50): 0.267 µM; GI50 ([10]; MDA-MB-435 (so in the source), read-out: Log10 GI50 (converted)): 1.78 µM; TGI ([10]; MDA-MB-435): 0.807 µM; Log10 TGI ([10]; MDA-MB-435 (so in the source)): −5.49; Mean Optical Densities [10, 13]: 0.244; Percent Growth [10, 13]: −58%; Mean Optical Densities [10, 14]: 0.230; Percent Growth [10, 14]: −61%; Mean Optical Densities [10, 15]: 0.528; Percent Growth [10, 15]: −10%; Mean Optical Densities [10, 16]: 1.517; Percent Growth [10, 16]: 94%; Mean Optical Densities [10, 17]: 1.613; Percent Growth [10, 17]: 104%; GI50 ([11]; MDA-MB-231, MDA-MB-231/ATCC, read-out: GI50): 1.09 µM; GI50 ([11]; MDA-MB-231, line printed "231/ATCC" (second line of the wrapped name), read-out: Log10 GI50 (converted)): 1.86 µM; GI50 ([11]; MDA-MB-231, line printed "MDA-MB-" (first line of MDA-MB-231/ATCC), read-out: Log10 GI50 (converted)): 1.1 µM; CC50 ([11]; MDA-MB-231, read-out: LC50, MDA-MB-231/ATCC): 5.18 µM; CC50 ([11]; MDA-MB-231, read-out: Log10 LC50, line printed "231/ATCC" (second line of the wrapped name) (converted)): 8.51 µM; CC50 ([11]; MDA-MB-231, read-out: Log10 LC50, line printed "MDA-MB-" (first line of MDA-MB-231/ATCC) (converted)): 5.13 µM; TGI ([11]; MDA-MB-231/ATCC): 2.37 µM; Mean Optical Densities [11, 18]: 0.038; Percent Growth [11, 18]: −94%; Mean Optical Densities [11, 19]: 0.053; Percent Growth [11, 19]: −92%; Mean Optical Densities [11, 20]: 0.839; Percent Growth [11, 20]: 55%; Mean Optical Densities [11, 21]: 0.863; Percent Growth [11, 21]: 63%; Mean Optical Densities [11, 22]: 0.897; Percent Growth [11, 22]: 75%; Log10 TGI ([11]; line printed "231/ATCC" (second line of the wrapped name)): −5.40; Log10 TGI ([11]; line printed "MDA-MB-" (first line of MDA-MB-231/ATCC)): −5.63; TGI ([12]; HS 578T): 3.96 µM; Log10 TGI ([12]; HS 578T (so in the source)): −6.09; Mean Optical Densities [12, 23]: 0.264; Percent Growth [12, 23]: −62%; Mean Optical Densities [12, 24]: 0.269; Percent Growth [12, 24]: −61%; Mean Optical Densities [12, 25]: 1.217; Percent Growth [12, 25]: 91%; Mean Optical Densities [12, 26]: 1.258; Percent Growth [12, 26]: 98%; Mean Optical Densities [12, 27]: 1.206; Percent Growth [12, 27]: 89%; CC50 ([12]; read-out: LC50): 8.43 µM; CC50 ([12]; read-out: Log10 LC50 (converted)): 6.17 µM; GI50 ([12]; HS 578T (so in the source), read-out: Log10 GI50 (converted)): 0.269 µM; GI50 ([12]; HS 578T, read-out: GI50): 1.86 µM
